Source: patent US20070219214A1, “Dual NK2/NK3-antagonists, pharmaceutical compositions comprising them, and processes for their preparation” (Solvay pharmaceuticals GmbH, priority 2006, published 2007)

Legend:
[1] = molecular target: T1, NK3-receptor (Meriones unguiculatus, UniProt Q2YHR0); assay: NK3-receptor-antagonistic effectiveness in vivo, senktide-induced hypothermia in gerbils; conditions: gerbil; for Inhibition of temperature increase at a dose of 10 mg/kg after parenteral (ip) administration: 10 mg/kg ip; for Inhibition of temperature increase at t = 60 minutes after oral (po) administration: senktide 0.03 mg/kg sc
T1 construct: from tissue; host or cells: whole animal (male gerbils), in vivo
T1 sequence (Q2YHR0 1-454): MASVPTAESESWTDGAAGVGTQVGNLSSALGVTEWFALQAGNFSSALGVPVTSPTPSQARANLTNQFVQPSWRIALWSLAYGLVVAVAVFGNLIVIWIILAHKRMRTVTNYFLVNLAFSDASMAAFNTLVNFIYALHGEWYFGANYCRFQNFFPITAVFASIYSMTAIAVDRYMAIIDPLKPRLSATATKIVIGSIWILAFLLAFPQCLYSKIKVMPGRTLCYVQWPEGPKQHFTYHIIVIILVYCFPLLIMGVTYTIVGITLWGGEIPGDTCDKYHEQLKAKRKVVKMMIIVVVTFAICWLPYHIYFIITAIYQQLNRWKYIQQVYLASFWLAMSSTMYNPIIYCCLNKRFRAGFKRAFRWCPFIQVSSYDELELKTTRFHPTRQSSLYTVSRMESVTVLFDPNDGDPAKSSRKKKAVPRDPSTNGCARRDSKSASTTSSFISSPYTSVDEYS
Procedure: 8. Determination of the NK3-Receptor-Antagonistic Effectiveness of the Test Substances In Vivo (Reduction of Body Temperature in Gerbils with Senktide-Induced Hypothermia)
NK3 agonists reduce the body temperature of gerbils. The senktide-induced hypothermia can be antagonized by administering compounds with NK3-antagonistic properties. Measuring the level of hypothermia is indicative for the degree of activity of the test compounds. The own effect of the tested compound is assessed in the same experiment to exclude an additional hyperthermic effect.
Male gerbils with a body weight between 60 to 90 g are housed in groups under normal day-night rhythm and under constant environmental temperature (room temperature: 21±2° C.) with a constant relative humidity level (50±10%). Water and food are freely available. […] Antagonists: see example compounds in table X.
The animals are weighted and marked 60 minutes prior to the agonist administration. For oral (po) testings, the test compounds are administered at t=−60 minutes. For parenteral or subcutaneous (i por sc, resp.) administration, at t=−30 minutes. […] At t=15 minutes the temperature is measured orally, and registered with a 0.1° C. accuracy after a 10 second reading. This way, animals are measured every 60 sec.

[2] = molecular target: T2, NK2-receptor (Cavia porcellus, UniProt Q64077); assay: Functional NK2-receptor antagonism in gall bladder preparations isolated from guinea pigs; conditions: neurokinin A-induced contraction
T2 construct: from tissue; host or cells: whole animal (Pirbright-White guinea pigs), in vivo
T2 sequence (Q64077 1-402): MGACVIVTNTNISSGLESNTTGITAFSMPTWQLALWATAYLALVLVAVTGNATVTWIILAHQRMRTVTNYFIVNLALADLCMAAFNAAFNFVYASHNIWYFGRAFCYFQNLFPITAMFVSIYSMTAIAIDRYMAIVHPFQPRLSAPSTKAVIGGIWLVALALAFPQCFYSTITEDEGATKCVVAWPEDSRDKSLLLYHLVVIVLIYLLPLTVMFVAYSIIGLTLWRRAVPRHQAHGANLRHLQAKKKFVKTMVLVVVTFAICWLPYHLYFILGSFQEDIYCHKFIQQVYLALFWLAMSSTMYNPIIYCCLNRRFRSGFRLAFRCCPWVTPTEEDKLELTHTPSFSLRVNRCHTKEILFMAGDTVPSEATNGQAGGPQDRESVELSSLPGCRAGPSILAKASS
Procedure: 6. Determination of Functional NK2-Receptor Antagonism of Test Compounds in Tissue Isolated from Guinea Pigs.
The NK2 antagonistic action of test compounds was tested in gall bladder preparations isolated from guinea pigs. The preparations were kept in an oxygenated nutrient solution kept at 37° C. For measuring contraction of the gall bladder muscle, the preparations were fixed to a hook and connected to force displacement transducers. Contractions were recorded on a pen recorder.
Before (predrug) and after the administration of the test compound such contractions were measured and quantified in percent of the predrug contraction. 2-3 concentrations of the test compound were applied showing the inhibition of the receptor stimulation concentration dependently. […]

[3] = molecular target: T3, NK3-receptor (Cavia porcellus, UniProt P30098); assay: Functional NK3-receptor antagonism in ileal preparations isolated from guinea pigs; conditions: guinea pig ileum, [MePhe7]-neurokinin B-induced contraction
T3 construct: from tissue; host or cells: whole animal (Dunkin Hartley guinea pigs), in vivo
T3 sequence (P30098 1-440): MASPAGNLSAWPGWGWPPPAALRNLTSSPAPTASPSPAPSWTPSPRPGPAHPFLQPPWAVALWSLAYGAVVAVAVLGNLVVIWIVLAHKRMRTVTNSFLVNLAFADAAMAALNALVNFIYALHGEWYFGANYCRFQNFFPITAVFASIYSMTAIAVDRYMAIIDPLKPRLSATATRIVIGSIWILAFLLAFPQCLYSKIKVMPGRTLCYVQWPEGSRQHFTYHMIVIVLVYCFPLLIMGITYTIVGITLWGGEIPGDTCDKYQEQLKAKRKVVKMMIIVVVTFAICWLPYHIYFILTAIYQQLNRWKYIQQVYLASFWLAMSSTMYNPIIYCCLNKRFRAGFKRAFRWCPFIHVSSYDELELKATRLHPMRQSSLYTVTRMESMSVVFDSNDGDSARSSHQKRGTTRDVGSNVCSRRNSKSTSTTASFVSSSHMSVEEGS
Procedure: 7. Determination of Functional NK3-Receptor Antagonism of Test Compounds in Tissue Isolated from Guinea Pigs.
The NK3-antagonistic action of test compounds was tested in ileal preparations isolated from guinea pigs. The preparations were kept in an oxygenated nutrient solution kept at 37° C. For measuring contraction of the longitudinal muscle of the ileum, the preparations were fixed to a hook and connected to force displacement transducers. Contractions were recorded on a pen recorder.
The NK3-receptors were stimulated with the NK3-receptor agonist [MePhe^7]-neurokinin B, causing a contraction of the muscle. Before (predrug) and after the administration of the test compound such contractions were measured and quantified in percent of the predrug contraction. 2-3 concentrations of the test compound were applied showing the inhibition of the receptor stimulation concentration dependently. […] The pIC50 value indicates the inhibitory potency of the test compounds to the NK3-receptor.

[4] = molecular target: human NK1-receptor (Homo sapiens, UniProt P25103); assay: Functional cellular test, Ca2+ measurements using FLIPR for NK1 activity; format: cell-based; design: expressed in transfected cells; host or cells: CHO fibroblast cells; conditions: for pA2 data for NK1: CHO cells, human NK1, FLIPR Ca2+, agonist substance P 10^-8 M
Description: The NK receptor is coupled to Gq.
All steps were done under sterile conditions.

[5] = t = 30 minutes after administration

Chain of human NK1-receptor (P25103 whole entry): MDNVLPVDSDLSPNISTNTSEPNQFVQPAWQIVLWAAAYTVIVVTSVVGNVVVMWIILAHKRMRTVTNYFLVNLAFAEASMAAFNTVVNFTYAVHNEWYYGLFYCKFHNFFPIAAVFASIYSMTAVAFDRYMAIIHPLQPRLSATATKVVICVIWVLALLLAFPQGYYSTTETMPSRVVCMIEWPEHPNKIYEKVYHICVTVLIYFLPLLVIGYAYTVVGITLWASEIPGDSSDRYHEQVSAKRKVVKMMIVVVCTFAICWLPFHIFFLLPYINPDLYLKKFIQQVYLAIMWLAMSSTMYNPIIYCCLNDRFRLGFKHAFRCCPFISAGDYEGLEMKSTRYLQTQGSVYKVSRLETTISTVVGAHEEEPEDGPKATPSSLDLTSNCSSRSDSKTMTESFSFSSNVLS

CN(C)C(=O)C1(N2CCCCC2)CCN(CC[C@H](CN(C)C(=O)c2ccc(O)cc2)c2ccc(Cl)c(Cl)c2)CC1 [compound 6, 1′-{(3S)-3-(3,4-dichlorophenyl)-4-[(4-hydroxybenzoyl)-(methyl)amino]butyl}-N,N-dimethyl-1,4′-bipiperidine-4′-carboxamide]
Inhibition of temperature increase at a dose of 10 mg/kg after parenteral (ip) administration [1, 5]: 75%

CN(C)C(=O)C1(N2CCCCC2)CCN(CC[C@H](CN(C)C(=O)C2CCCCC2)c2ccc(Cl)c(Cl)c2)CC1 [compound 3]
pA2, NK-2-receptor-antagonistic effectiveness on the guinea pig gall bladder in vitro [2]: 8.96 | pA2, functional NK3-antagonism on isolated guinea pig tissue [3]: 8.5

CN(C)C(=O)C1(N2CCCCC2)CCN(CC[C@H](CN(C)C(=O)c2ccccc2)c2ccc(Cl)c(Cl)c2)CC1 [compound 1]
Kb ([4]; read-out: pA2 data for NK1 (converted)): 7.94 nM | Inhibition of temperature increase at t = 60 minutes after oral (po) administration ([1]; Dose: 10 mg/kg po): 37% | Inhibition of temperature increase at t = 60 minutes after oral (po) administration ([1]; Dose: 30 mg/kg po): 54%

CN(C)C(=O)C1(N2CCCCC2)CCN(CC[C@H](CN(C)C(=O)c2cc(F)ccc2F)c2ccc(Cl)c(Cl)c2)CC1 [compound 15]
pA2 data for NK1 [4]: 7.2

CN(C)C(=O)C1(N2CCCCC2)CCN(CC[C@H](CN(C)C(=O)c2ccc(F)c(F)c2)c2ccc(Cl)c(Cl)c2)CC1 [compound 14]
pA2 data for NK1 [4]: 7.3

CN(C)C(=O)C1(N2CCCCC2)CCN(CC[C@H](CN(C)C(=O)c2ccc(F)cc2)c2ccc(Cl)c(Cl)c2)CC1 [compound 4]
pA2, NK-2-receptor-antagonistic effectiveness on the guinea pig gall bladder in vitro [2]: 8.86 | Inhibition of temperature increase at a dose of 10 mg/kg after parenteral (ip) administration ([1]; t = 15 minutes after administration): 54% | Inhibition of temperature increase at a dose of 10 mg/kg after parenteral (ip) administration [1, 5]: 68% | pA2, functional NK3-antagonism on isolated guinea pig tissue [3]: 8.0

CN(C)C(=O)C1(N2CCCCC2)CCN(CC[C@H](CN(C)C(=O)c2cc(C#N)c3ccccc3c2)c2ccc(Cl)c(Cl)c2)CC1 [compound 11]
pA2, NK-2-receptor-antagonistic effectiveness on the guinea pig gall bladder in vitro [2]: 8.03 | pA2 data for NK1 [4]: 7.9

CN(C)C(=O)C1(N2CCCCC2)CCN(CC[C@H](CN(C)C(=O)c2ccc(F)cc2F)c2ccc(Cl)c(Cl)c2)CC1 [compound 13]
pA2 data for NK1 [4]: 7.5
